In patent US20060216238A1, “Compositions and methods for targeting or imaging a tissue in a vertebrate subject” (priority 2005, published 2006):

Legend:
[1] = target: KDR receptor (VEGFR2) (Homo sapiens, UniProt P35968); experiment: Binding assay using ELISA
[2] = tested on: HUVECS stimulated with vegf; experiment: Endothelial cell proliferation assay using CFDA; assay type: cell-based, human; conditions: 30 ug/ml; listed as wt CPMV
Method: Measure in vitro angiogenesis by endothelial cell proliferation assay. HUVECs were plated in 96 well plates at 10^4 cells/well in 200 ul EGM2 complete medium. Cells were incubated for 24 h at 37° C. in 5% CO2. cells were then washed once in PBS and incubated in serum free, glucose free medium for 24 h to suppress cell growth. Further, the cells were exposed to various treatments like 10% FBS or VEGF165 in the presence or absence of the targeting CPMV chimeras. Wild type CPMV was used as a control. After 48 h incubation, 1 μl of CFDA was added to the wells and the plated were incubated for additional 24 h. The cells were then placed on ice, washed in PBS 3× and finally fixed in cold 10% TCA for 10 minutes. After washing, the cells were lysed and the CFDA incorporation was read at 488 nm.

[3] = tested on: cowpea plants; experiment: Infectivity of SGF- or SIF-treated CPMV on cowpea plants; set-up: species or system Vigna unguiculata; conditions: SGF 60 minutes or SIF 120 minutes, day 14 post-inoculation
Method: Stability of CPMV particles in simulated gastric conditions. Simulated gastric fluid (SGF) and simulated intestinal fluid (SIF) were prepared according to Takagi et al. Takagi et al., Biol. Pharm. Bull 26:969-973, 2003. Briefly, pepsin (3.8 mg; Sigma) was dissolved into 5 ml of gastric control fluid (2 mg/ml NaCl, pH 2.0). SIF was prepared by dissolving pancreatin, (10 mg/ml; Sigma) in intestinal control fluid (0.05 M […], pH 6.8). Both solutions were used within the same day. SGF (400 μl) was first incubated at 37° C. for 2 minutes before addition of CPMV (200 μg), giving a ratio of 10 U of pepsin activity/μg of CPMV. The tube contents were mixed by mild vortexing and the tube was immediately placed in a 37° C. water bath for time points ranging from 0-60 minutes, followed by neutralization with 70 μl of 200 mM sodium bicarbonate solution. Similarly, SIF was incubated at 37° C. for 2 minutes before addition of CPMV (200 μg) and the tube contents were placed in a 37° C. water bath for time points up to 120 minutes. Aliquots of virus exposed to SGF or SIF were mixed with 5 μl of NuPAGE 4× LDS-sample buffer, run on 4-12% SDS-PAGE gels, and stained with Simply Blue Safe Stain (Invitrogen). […]

[4] = tested on: cowpea plants; experiment: Infectivity of CPMV following incubation with blood plasma or serum; set-up: species or system Vigna unguiculata; conditions: day 7
Method: Infectivity of CPMV following incubation with blood. Whole blood samples were obtained from mice following cardiac puncture either with or without heparin. Samples were incubated at 4° C. overnight and then spun at 15,000 rpm for 10 minutes. Blood plasma or serum were recovered and incubated with CPMV (15 ug) in a one to one (v/v) ratio at 37° C. for 30 minutes while a control CPMV sample was incubated with PBS. Primary leaves from 7-day-old cowpea plants were then bruised with carborundum and inoculated with samples (at a concentration of 3 μg CPMV per leaf, or 300-fold more virus than is required to produce lesions) and observed daily for infection-induced mosaic symptoms.

[5] = RT-PCR detection of CPMV RNA in tissues of mice inoculated orally (gavage); conditions: for CPMV RNA detected in bone marrow, mice positive/examined / CPMV RNA detected in brain, mice positive/examined / CPMV RNA detected in duodenum, mice positive/examined / CPMV RNA detected in ileum, mice positive/examined / CPMV RNA detected in jejunum, mice positive/examined / CPMV RNA detected in kidney, mice positive/examined / CPMV RNA detected in liver, mice positive/examined / CPMV RNA detected in lung, mice positive/examined / CPMV RNA detected in spleen, mice positive/examined / CPMV RNA detected in stomach, mice positive/examined: oral
[6] = tested on: LCMV; conditions: mouse, in vivo
[7] = 1 g infected leaves, day 1 post ingestion

KDR receptor (VEGFR2), sequence (P35968 20-1356): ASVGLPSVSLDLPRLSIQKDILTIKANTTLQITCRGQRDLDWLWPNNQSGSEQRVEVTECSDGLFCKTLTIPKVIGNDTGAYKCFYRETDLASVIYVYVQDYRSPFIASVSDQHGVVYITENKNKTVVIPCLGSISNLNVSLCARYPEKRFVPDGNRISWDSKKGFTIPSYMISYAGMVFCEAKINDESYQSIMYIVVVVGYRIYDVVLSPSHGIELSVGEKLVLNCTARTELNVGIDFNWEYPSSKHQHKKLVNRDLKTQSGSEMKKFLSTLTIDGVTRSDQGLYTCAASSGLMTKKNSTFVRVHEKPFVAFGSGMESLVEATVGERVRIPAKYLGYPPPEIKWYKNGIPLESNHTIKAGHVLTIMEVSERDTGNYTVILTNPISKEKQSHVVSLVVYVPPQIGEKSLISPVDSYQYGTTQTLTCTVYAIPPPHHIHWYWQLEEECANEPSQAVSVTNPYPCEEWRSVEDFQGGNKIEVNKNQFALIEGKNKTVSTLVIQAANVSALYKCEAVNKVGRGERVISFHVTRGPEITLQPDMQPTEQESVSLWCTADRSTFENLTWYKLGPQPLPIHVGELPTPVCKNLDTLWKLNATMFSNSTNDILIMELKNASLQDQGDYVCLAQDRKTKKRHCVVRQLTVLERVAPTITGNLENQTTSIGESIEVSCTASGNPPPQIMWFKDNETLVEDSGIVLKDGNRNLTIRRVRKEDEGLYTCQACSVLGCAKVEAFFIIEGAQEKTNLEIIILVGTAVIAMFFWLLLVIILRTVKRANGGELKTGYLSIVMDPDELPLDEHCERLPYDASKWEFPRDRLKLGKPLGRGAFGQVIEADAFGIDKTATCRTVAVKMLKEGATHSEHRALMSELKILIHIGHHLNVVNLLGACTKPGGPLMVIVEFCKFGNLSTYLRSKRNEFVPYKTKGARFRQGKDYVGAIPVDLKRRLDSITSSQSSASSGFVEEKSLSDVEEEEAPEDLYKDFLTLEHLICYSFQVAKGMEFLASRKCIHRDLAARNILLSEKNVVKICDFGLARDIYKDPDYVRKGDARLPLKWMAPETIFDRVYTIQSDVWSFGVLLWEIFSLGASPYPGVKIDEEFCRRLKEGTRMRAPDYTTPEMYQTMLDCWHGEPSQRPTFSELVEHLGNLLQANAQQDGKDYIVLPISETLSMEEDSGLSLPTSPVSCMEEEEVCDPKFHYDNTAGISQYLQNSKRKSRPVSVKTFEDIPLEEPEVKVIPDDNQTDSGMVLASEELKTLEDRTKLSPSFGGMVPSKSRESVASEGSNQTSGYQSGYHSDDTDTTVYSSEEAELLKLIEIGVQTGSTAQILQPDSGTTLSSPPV

Substance: cowpea mosaic virus [CPMV]
- binding to KDR receptor in ELISA [1]: did not show any detectable binding
- effect on cell growth/proliferation [2]: did not affect cell growth/proliferation
- infectivity on cowpea plants after SGF or SIF [3]: infectivity similar to untreated CPMV
- mice positive for CPMV RNA in kidney, duodenum, jejunum and brain [7]: 1 out of 3
- mice positive for CPMV RNA in spleen, liver, lungs, stomach, ileum and bone marrow [7]: 2 out of 3
- persistence of CPMV RNA in tissues (ingestion of infected leaves): did not persist in tissues past the first day
- lesions on primary leaves, plasma-incubated virus ([4]; 30 minutes at 37° C.): 6 lesions per cm
- lesions on primary leaves, serum-incubated virus ([4]; 30 minutes at 37° C.): less than 1 lesion per cm^2
- lesions on primary leaves, control infection (PBS) [4]: too many lesions to count
- CPMV RNA in the blood ([5]; oral gavage, 4 hours, 1 day, 2 days, 3 days): detected in the blood of all orally gavaged mice
- CPMV RNA detected in bone marrow, mice positive/examined ([5]; D1, Non-perfused): 3/3
- CPMV RNA detected in brain, mice positive/examined ([5]; D1, Non-perfused): 3/3
- CPMV RNA detected in duodenum, mice positive/examined ([5]; D1, Non-perfused): 3/3
- CPMV RNA detected in ileum, mice positive/examined ([5]; D1, Non-perfused): 3/3
- CPMV RNA detected in jejunum, mice positive/examined ([5]; D1, Non-perfused): 3/3
- CPMV RNA detected in kidney, mice positive/examined ([5]; D1, Non-perfused): 3/3
- CPMV RNA detected in liver, mice positive/examined ([5]; D1, Non-perfused): 3/3
- CPMV RNA detected in lung, mice positive/examined ([5]; D1, Non-perfused): 3/3
- CPMV RNA detected in spleen, mice positive/examined ([5]; D1, Non-perfused): 3/3
- CPMV RNA detected in stomach, mice positive/examined ([5]; D1, Non-perfused): 3/3
- CPMV RNA detected in bone marrow, mice positive/examined ([5]; D1, Perfused): 2/3
- CPMV RNA detected in brain, mice positive/examined ([5]; D1, Perfused): 3/3
- CPMV RNA detected in duodenum, mice positive/examined ([5]; D1, Perfused): 3/3
- CPMV RNA detected in ileum, mice positive/examined ([5]; D1, Perfused): 3/3
- CPMV RNA detected in jejunum, mice positive/examined ([5]; D1, Perfused): 3/3
- CPMV RNA detected in kidney, mice positive/examined ([5]; D1, Perfused): 3/3
- CPMV RNA detected in liver, mice positive/examined ([5]; D1, Perfused): 3/3
- CPMV RNA detected in lung, mice positive/examined ([5]; D1, Perfused): 3/3
- CPMV RNA detected in spleen, mice positive/examined ([5]; D1, Perfused): 3/3
- CPMV RNA detected in stomach, mice positive/examined ([5]; D1, Perfused): 2/3
- CPMV RNA detected in bone marrow, mice positive/examined ([5]; D2, Non-perfused): 0/3
- CPMV RNA detected in brain, mice positive/examined ([5]; D2, Non-perfused): 1/3
- CPMV RNA detected in duodenum, mice positive/examined ([5]; D2, Non-perfused): 1/3
- CPMV RNA detected in ileum, mice positive/examined ([5]; D2, Non-perfused): 3/3
- CPMV RNA detected in jejunum, mice positive/examined ([5]; D2, Non-perfused): 0/3
- CPMV RNA detected in kidney, mice positive/examined ([5]; D2, Non-perfused): 0/3
- CPMV RNA detected in liver, mice positive/examined ([5]; D2, Non-perfused): 3/3
- CPMV RNA detected in lung, mice positive/examined ([5]; D2, Non-perfused): 1/3
- CPMV RNA detected in spleen, mice positive/examined ([5]; D2, Non-perfused): 1/3
- CPMV RNA detected in stomach, mice positive/examined ([5]; D2, Non-perfused): 1/3
- CPMV RNA detected in bone marrow, mice positive/examined ([5]; D2, Perfused): 0/3
- CPMV RNA detected in brain, mice positive/examined ([5]; D2, Perfused): 1/3
- CPMV RNA detected in duodenum, mice positive/examined ([5]; D2, Perfused): 1/3
- CPMV RNA detected in ileum, mice positive/examined ([5]; D2, Perfused): 1/3
- CPMV RNA detected in jejunum, mice positive/examined ([5]; D2, Perfused): 1/3
- CPMV RNA detected in kidney, mice positive/examined ([5]; D2, Perfused): 3/3
- CPMV RNA detected in liver, mice positive/examined ([5]; D2, Perfused): 3/3
- CPMV RNA detected in lung, mice positive/examined ([5]; D2, Perfused): 2/3
- CPMV RNA detected in spleen, mice positive/examined ([5]; D2, Perfused): 0/3
- CPMV RNA detected in stomach, mice positive/examined ([5]; D2, Perfused): 1/3
- CPMV RNA detected in bone marrow, mice positive/examined ([5]; D3, Non-perfused): 1/3
- CPMV RNA detected in brain, mice positive/examined ([5]; D3, Non-perfused): 3/3
- CPMV RNA detected in duodenum, mice positive/examined ([5]; D3, Non-perfused): 2/3
- CPMV RNA detected in ileum, mice positive/examined ([5]; D3, Non-perfused): 2/3
- CPMV RNA detected in jejunum, mice positive/examined ([5]; D3, Non-perfused): 2/3
- CPMV RNA detected in kidney, mice positive/examined ([5]; D3, Non-perfused): 1/3
- CPMV RNA detected in liver, mice positive/examined ([5]; D3, Non-perfused): 2/2
- CPMV RNA detected in lung, mice positive/examined ([5]; D3, Non-perfused): 1/3
- CPMV RNA detected in spleen, mice positive/examined ([5]; D3, Non-perfused): 0/3
- CPMV RNA detected in stomach, mice positive/examined ([5]; D3, Non-perfused): 3/3
- CPMV RNA detected in bone marrow, mice positive/examined ([5]; D3, Perfused): 0/3
- CPMV RNA detected in brain, mice positive/examined ([5]; D3, Perfused): 2/3
- CPMV RNA detected in duodenum, mice positive/examined ([5]; D3, Perfused): 0/2
- CPMV RNA detected in ileum, mice positive/examined ([5]; D3, Perfused): 1/3
- CPMV RNA detected in jejunum, mice positive/examined ([5]; D3, Perfused): 0/2
- CPMV RNA detected in kidney, mice positive/examined ([5]; D3, Perfused): 2/3
- CPMV RNA detected in liver, mice positive/examined ([5]; D3, Perfused): 3/3
- CPMV RNA detected in lung, mice positive/examined ([5]; D3, Perfused): 1/3
- CPMV RNA detected in spleen, mice positive/examined ([5]; D3, Perfused): 0/3
- CPMV RNA detected in stomach, mice positive/examined ([5]; D3, Perfused): 0/3
- survival of lethal i.c. LCMV challenge [6]: one of six
